According to patent publication US12496298B2, “Natural killer cells” (Imperial College Innovations Limited, priority 2017, dated 2025):

Test system: mouse NK cell (NK1.1+CD3−) production from HPCs
Assay: In vitro development of NK cells from mouse HPCs (NK cell development assay, flow cytometry at Day 9)
Assay type: cell-based
Text: FIG. 2: Timeline of NK cell development assay. HPCs were isolated and cultured plus FIt3L, IL-7 and SCF cytokines. At Day 2, they were then transferred onto OP9 stromal cells plus or minus drug in culture medium plus the IL-15 cytokine. The media of the cultures were changed at Day 5 and the cells were harvested and analysed at Day 9.
Lineage negative cells are enriched for Hematopoietic Progenitor Cells (HPCs). […] Cells were harvested on Day 9 and analysed using flow cytometry to determine the number of NK1.1^+CD3^− cells (FIG. 2). NK1.1^+ and CD3^− are two cell surface markers that can define mouse NK cells. OP9 stromal cells were readily excluded from the analysis, as the OP9 stromal cells used were GFP positive (FIG. 3B). Flow cytometry data were analysed as the fold increase, relative to the ‘No drug’ or untreated control in each experiment. This is because the absolute percentage of NK cell production varies between experiments.
Lineage negative HSCs were purified from mouse bone marrow by crushing the leg bones in Phosphate-buffered Saline (PBS) with 2% fetal calf serum (FCS) (STEMCELL Technologies), topped up to 40 ml with magnetic-activated cell sorting (MACS) buffer (PBS, 2 mM EDTA, 0.5% BSA, sterile and filtered) and centrifuged at 800 g for 2 minutes. The cells were resuspended in PE-conjugated cocktail, (20 μl of anti-B220 (RA3-6B2), anti-mouse CD2 (RM2-5, anti-Ter119 (TER119) and anti-NK.1.1 (PK136) and 5 μl of anti-CD11b (M1/70) and anti-GR-1 (RB6-8C5) antibodies (all from Bioscience)) incubated for 5 minutes at 4° C., centrifuged and resuspended in anti-PE microbeads for 15 minutes at 4° C. Cells were washed in MACS buffer and passed through MACS columns. This allowed negative selection of HPCs. Following lineage depletion, 50 μl of the cells was analysed using flow cytometry to check for purity.
The HPCs were plated and cultured in 24-well plates at a concentration of 5×10^5 HPCs/well in 1 ml of complete cytokine medium (Dulbecco's modified eagle medium (DMEM) (Sigma Aldrich), 10% FCS, 50 μM β-Mercaptoethanol, 10 ng/ml Flt3-ligand (FIt3L) (R&D Systems), 10 ng/ml IL-7 (R&D Systems), 100 ng/ml stem cell factor (SCF) (R&D Systems) and 1% P/S) for 2 days at 37° C., 5% CO2. The HPCs were then transferred onto OP9 cells at 4500 cells/well for 96-well plate experiments and 3×10^4 cells/well for 24-well plate experiments in mouse NK cells differentiation medium (Alpha-MEM (Sigma Aldrich) plus 20% FCS, 1% P/S and 30 ng/ml IL-15). Cells were left in culture at 37° C., 5% CO2 for 7 days with a change of mouse NK cells differentiation medium at day 3 or 4.
Cells to be analysed by flow cytometry were passed through 40 μm cell strainers to remove clumps and washed with PBS buffer, centrifuged at 800 g for 2 minutes and resuspended in 100 μl fluorescent activated cell sorting (FACS) buffer (PBS plus 1% BSA) with appropriate fluorochrome conjugated antibodies at a dilution of 1 in 300. Cells were stained with the following antibodies, all of which were anti-mouse and are from eBioscience unless specified: 2B4 (clone m2B4(B6) 458.1; BioLegend), CD2 (RM2-5), CD3 (17A2), CD11b (M1/70), CD19 (1D3), CD27 (LG.7F9), CD122 (TM-b1), CD127 (A7R34), B220 (RA3-6B2), ckit (ACK2), Flt3 (A2F10), Gr1 (RB6-8C5), NK1.1 (PK136), Sca1 (D7), Ter119 (TER119), NKp46 (29A1.4) anti-human CD45 (HI30), anti-human CD2 (RPA-2.10) and anti-human CD56 (CMSSB). The lineage cocktail contained B220, CD2, CD11b, Gr1, NK1.1, and Ter119. Cells were stained in the dark at 4° C. for 30 minutes and then washed with 2 ml FACS buffer, centrifuged and resuspend in 300 μl FACS buffer plus Propidium Iodide (PI) also at a dilution of 1 in 300. Flow cytometry was performed using LSRFortessa™ cell analyser (Becton Dickinson Bioscience), sorted using FACSAria (Becton Dickinson) as indicated and full data analysis was done using FlowJo Software.

For `NC(=O)c1ccc(-c2nc(-c3ccc4c(c3)OCCO4)c(-c3ccccn3)[nH]2)cc1` [D4476], the “NK cell production compared to 'No drug' control” value (20 μM added Day 2, analysed Day 9, screen (FIG. 3)) was “significant increase”.
For `CC(C)(C)OC(=O)CN(Cc1ccc(Cl)cc1)Cc1ccc([N+](=O)[O-])s1` [GSK4112], the “NK cell production reduced” value (GSK4112 tested at 2, 5, 10 and 20 μM (FIG. 6), concentration not given) was ~50% and the “effect on NK cell production” value (summary in Discussion) was “decreasing NK cell production”.
In the case of `N#Cc1ccc(-c2csc(NN=C3CCCC3)n2)cc1` [Remodelin], the “NK cell production compared to 'No drug' control” value (5 μM added Day 2, analysed Day 9, screen (FIG. 3)) is reported as “significant increase”.
